Among the data in the NIST ThermoML archive (doi:10.1016/j.jct.2006.07.022) are refractive index and mass density values, retold here.

± gives the expanded uncertainty stated by the source.

Series [1] can be described thus: refractive index (Na D-line) (dimensionless). To be noted: 298.15 K; 101.33 kPa; Liquid; Standard Abbe refractometry.
Series [2] is described as follows: xn = mol fraction of the nth substance listed. The following applies: 101 kPa, Liquid.

Regarding `c1ccccc1` [benzene], the refractive index in series [1] stood at 1.5009 ± 0.0007.
Consider `c1ccccc1` [benzene] + CN(C)C=O, for which the mass density in series [2] (293.15 K, x1 = 1) is given as 878.96 ± 0.33 kg/m3; in series [2] (303.15 K, x1 = 1), 868.21 ± 0.34 kg/m3; in series [2] (313.15 K, x1 = 1) it was 857.4 ± 0.36 kg/m3; in series [2] (323.15 K, x1 = 1), 846.55 ± 0.38 kg/m3; in series [2] (333.15 K, x1 = 1), 835.66 ± 0.39 kg/m3; in series [2] (343.15 K, x1 = 1), 824.71 ± 0.41 kg/m3.
Turning to `CN(C)C=O` [dimethylformamide], the refractive index in series [1] is 1.4307 ± 0.0007.
Regarding `CN(C)C=O` [dimethylformamide] + CCc1ccccc1, the mass density in series [2] (293.15 K, x2 = 0) stood at 948.58 ± 0.25 kg/m3; in series [2] (303.15 K, x2 = 0), 939.46 ± 0.26 kg/m3; in series [2] (313.15 K, x2 = 0), 930.12 ± 0.28 kg/m3; in series [2] (323.15 K, x2 = 0), 920.55 ± 0.29 kg/m3; in series [2] (333.15 K, x2 = 0) it was 910.75 ± 0.3 kg/m3; in series [2] (343.15 K, x2 = 0), 900.73 ± 0.32 kg/m3. For the same compound, the mass density in series [2] (353.15 K, x2 = 0) was 890.48 ± 0.34 kg/m3.
In the case of `CCc1ccccc1` [ethylbenzene], the refractive index in series [1] was 1.4962 ± 0.0008.
On the same count and under the same terms, next, `Cc1ccccc1` [toluene]: 1.4965 ± 0.0008.
Turning to `Cc1ccccc1` [toluene] + CN(C)C=O, the mass density in series [2] (293.15 K, x1 = 1) turned out to be 866.8 ± 0.94 kg/m3; in series [2] (303.15 K, x1 = 1), 857.53 ± 0.94 kg/m3; in series [2] (313.15 K, x1 = 1), 848.23 ± 0.94 kg/m3; in series [2] (323.15 K, x1 = 1), 838.91 ± 0.94 kg/m3; in series [2] (333.15 K, x1 = 1), 829.55 ± 0.95 kg/m3; in series [2] (343.15 K, x1 = 1), 820.17 ± 0.95 kg/m3. Also, the mass density in series [2] (353.15 K, x1 = 1) came out at 810.77 ± 0.95 kg/m3.

As a reminder, the refractive index is a measure of how strongly the sample bends light. The mass density is mass per unit of volume.
